{"source": "ChEMBL document CHEMBL5375966", "about": "“Exploiting the \"Hot-Spots\" of Hsp70-Bim Protein-Protein Interaction to Optimize the 1-Oxo-1H-phenalene-2,3-dicarbonitrile Analogues as Specific Hsp70-Bim Inhibitors” (J Med Chem, 2023)", "key": {"[1]": {"test": "Inhibition of Fam-labeled BimBH3 peptide binding to N-terminal 6His-tagged human recombinant HSP70 NBD (1 to 383 residues) Y149A mutant expressed in Escherichia coli BL21 (DE3) assessed as dissociation constant incubated for 24 hrs by fluorescence polarization assay"}, "[2]": {"test": "Induction of apoptosis in human Imatinib-resistant K562-R3 cells incubated for 24 hrs by annexin V/PI staining based flow cytometry analysis", "format": "functional", "settings": "Imatinib-resistant K562-R3 cell"}, "[3]": {"test": "Inhibition of Fam-labeled BimBH3 peptide binding to wild type N-terminal 6His-tagged human recombinant HSP70 NBD (1 to 383 residues) expressed in Escherichia coli BL21 (DE3) assessed as dissociation constant incubated for 24 hrs by fluorescence polarization assay"}, "K562 [4]": {"test_system": "K562", "test": "Inhibition of HSP70-Bim protein protein interaction in human K562 cells assessed as decrease in EIF4e protein expression at 2 uM incubated for 12 hrs by Western blot analysis", "format": "cell-based"}, "[5]": {"test": "Cmax in Sprague-Dawley rat at 3 mg/kg, iv measured upto 24 hrs by LC-MS/MS analysis", "format": "ADME, organism-based", "design": "dose 3 mg/kg, time < 24 hrs, route iv", "settings": "in vivo"}, "[6]": {"test": "Inhibition of Bim (unknown origin)- N-terminal 6His-tagged human recombinant HSP70 NBD (1 to 383 residues) expressed in Escherichia coli BL21 (DE3) protein protein interaction assessed as suppression of BimBH3-stimulated HSP70 ATPase activity"}, "K562 [7]": {"test_system": "K562", "test": "Inhibition of HSP70-Bim protein protein interaction in human K562 cells assessed as decrease in AKT protein expression at 2 uM incubated for 12 hrs by Western blot analysis", "format": "cell-based"}, "[8]": {"test": "Antitumor activity against Bcr-Abl independent human Imatinib-resistant K562-R1 cells xenografted in BALB/c nu/nu mouse assessed as reduction in tumor weight by measuring T/C ratio at 2 mg/kg, ip administered every day for 14 days and measured on day 15", "format": "functional", "settings": "time 14 day"}, "K562 [9]": {"test_system": "K562", "test": "Inhibition of HSP70-Bim protein protein interaction in human K562 cells incubated for 12 hrs by Co-IP analysis", "format": "cell-based", "settings": "dose 0-5 µM"}, "[10]": {"test": "Inhibition of Fam-labeled BimBH3 peptide binding to N-terminal 6His-tagged human recombinant HSP70 NBD (1 to 383 residues) D225T mutant expressed in Escherichia coli BL21 (DE3) assessed as inhibition constant incubated for 24 hrs by fluorescence polarization assay"}, "[11]": {"test": "AUCt in Sprague-Dawley rat at 3 mg/kg, iv measured upto 24 hrs by LC-MS/MS analysis", "format": "ADME, organism-based", "design": "time < 24 hrs, dose 3 mg/kg, route iv", "settings": "in vivo"}, "BaF3": {"test_system": "BaF3", "test": "Induction of apoptosis in mouse BaF3 cells assessed as apoptotic rate at 15 uM incubated for 24 hrs by annexin V/PI staining based flow cytometry analysis relative to control", "format": "toxicity, cell-based", "settings": "baf3, 24 h"}, "[12]": {"test": "Tmax in Sprague-Dawley rat at 3 mg/kg, iv measured upto 24 hrs by LC-MS/MS analysis", "format": "ADME, organism-based", "settings": "in vivo"}, "BV-173": {"test_system": "BV-173", "test": "Induction of apoptosis in human BV-173 cells incubated for 24 hrs by annexin V/PI staining based flow cytometry analysis", "format": "functional, cell-based", "settings": "BV-173, 24 h"}, "Mus musculus [13]": {"test_system": "Mus musculus", "test": "In vivo disruption of HSP70-Bim protein protein interaction in BALB/c nu/nu mouse xenografted with Bcr-Abl independent human Imatinib-resistant K562-R1 cells assessed as destabilization of AKT protein level at 2 mg/kg, ip administered every day for 14 days and measured on day 15 by immunoblot analysis", "format": "functional, organism-based", "settings": "time 15.0 day"}, "K562 [14]": {"test_system": "K562", "test": "Inhibition of HSP70-Bim protein protein interaction in human K562 cells assessed as decrease in AKT phosphorylation at 2 uM incubated for 12 hrs by Western blot analysis", "format": "cell-based"}, "Mus musculus [15]": {"test_system": "Mus musculus", "test": "In vivo disruption of HSP70-Bim protein protein interaction in BALB/c nu/nu mouse xenografted with Bcr-Abl independent human Imatinib-resistant K562-R1 cells at 2 mg/kg, ip administered every day for 14 days and measured on day 15 by Co-IP analysis", "format": "functional, organism-based", "settings": "time 15.0 day"}, "HEK293": {"test_system": "HEK293", "test": "Induction of apoptosis in human HEK293 cells assessed as apoptotic rate at 15 uM incubated for 24 hrs by annexin V/PI staining based flow cytometry analysis relative to control", "format": "toxicity, cell-based", "settings": "hek293, 24 h"}, "[16]": {"test": "Clearance in Sprague-Dawley rat at 3 mg/kg, iv measured upto 24 hrs by LC-MS/MS analysis", "format": "ADME, organism-based", "settings": "in vivo"}, "K562 [17]": {"test_system": "K562", "test": "Induction of apoptosis in human K562 cells incubated for 24 hrs by annexin V/PI staining based flow cytometry analysis", "format": "functional, cell-based", "settings": "K562, 24 h"}, "K562 [18]": {"test_system": "K562", "test": "Induction of apoptosis in Bim shRNA transfected human K562 cells assessed as increase in Annexin V+ cells at 2 uM incubated for 24 hrs by Annexin V/PI staining based flow cytometry analysis", "format": "functional, cell-based"}, "[19]": {"test": "Inhibition of Fam-labeled BimBH3 peptide binding to N-terminal 6His-tagged human recombinant HSP70 NBD (1 to 383 residues) Y149A mutant expressed in Escherichia coli BL21 (DE3) assessed as inhibition constant incubated for 24 hrs by fluorescence polarization assay"}, "[20]": {"test": "Toxicity in BALB/c nu/nu mouse xenografted with Bcr-Abl independent human Imatinib-resistant K562-R1 cells assessed as reduction in body weight at 2 mg/kg, ip administered every day for 14 days and measured every 3 days", "format": "organism-based", "settings": "in vivo, 336 h, time 14 day"}, "[21]": {"test": "Half life in Sprague-Dawley rat at 3 mg/kg, iv measured upto 24 hrs by LC-MS/MS analysis", "format": "ADME, organism-based", "settings": "in vivo"}, "[22]": {"test": "Inhibition of Fam-labeled BimBH3 peptide binding to N-terminal 6His-tagged human recombinant HSP70 NBD (1 to 383 residues) expressed in Escherichia coli BL21 (DE3) assessed as inhibition constant incubated for 24 hrs by fluorescence polarization assay"}, "K562 [23]": {"test_system": "K562", "test": "Induction of apoptosis in HSP70 shRNA transfected human K562 cells assessed as increase in Annexin V+ cells at 2 uM incubated for 24 hrs by Annexin V/PI staining based flow cytometry analysis", "format": "functional, cell-based"}, "Mus musculus [24]": {"test_system": "Mus musculus", "test": "In vivo disruption of HSP70-Bim protein protein interaction in BALB/c nu/nu mouse xenografted with Bcr-Abl independent human Imatinib-resistant K562-R1 cells assessed as destabilization of EIF4e protein level at 2 mg/kg, ip administered every day for 14 days and measured on day 15 by immunoblot analysis", "format": "functional, organism-based", "settings": "time 15.0 day"}, "[25]": {"test": "Inhibition of Fam-labeled BimBH3 peptide binding to N-terminal 6His-tagged human recombinant HSP70 NBD (1 to 383 residues) D225T mutant expressed in Escherichia coli BL21 (DE3) assessed as dissociation constant incubated for 24 hrs by fluorescence polarization assay"}, "K562 [26]": {"test_system": "K562", "test": "Inhibition of HSP70-Bim protein protein interaction in human K562 cells assessed as decrease in EIF4e phosphorylation at 2 uM incubated for 12 hrs by Western blot analysis", "format": "cell-based"}, "K562 [27]": {"test_system": "K562", "test": "Inhibition of HSP70-Bag3 protein protein interaction in human K562 cells at 10 uM incubated for 12 hrs by Co-IP analysis", "format": "cell-based"}, "K562 [28]": {"test_system": "K562", "test": "Induction of apoptosis in HSP70 shRNA transfected human K562 cells assessed as increase in cleaved PARP level at 2 uM incubated for 24 hrs by Western blot analysis", "format": "functional, cell-based"}, "[29]": {"test_system": "Imatinib-resistant K562-R1", "test": "Antitumor activity against Bcr-Abl independent human Imatinib-resistant K562-R1 cells xenografted in BALB/c nu/nu mouse assessed as reduction in tumor growth at 2 mg/kg, ip administered every day for 14 days and measured on day 15", "format": "functional, organism-based", "settings": "time 15.0 day"}, "K562 [30]": {"test_system": "K562", "test": "Induction of apoptosis in Bim shRNA transfected human K562 cells assessed as increase in cleaved PARP level at 2 uM incubated for 24 hrs by Western blot analysis", "format": "functional, cell-based"}}, "note": "pEC50, pIC50, pKd, pKi: −log10 of the molar value. The source made the active and inactive calls. No cut-off for these calls is given here."}
{"smiles": "CCN(CC)CCNC1=C(C#N)C(=O)c2cccc3c(SC4CCCCC4)ccc1c23", "values": [{"measurement": "pKd", "setting": "[1]", "result": 5.80}, {"measurement": "pEC50", "setting": "[2]", "result": 6.47}, {"measurement": "pKd", "setting": "[3]", "result": 6.68}, {"measurement": "inhibition", "setting": "K562 [4]", "result": "Active"}, {"measurement": "Cmax", "setting": "[5]", "result": 2300, "unit": "ng/mL"}, {"measurement": "pIC50", "setting": "[6]", "result": 4.80}, {"measurement": "inhibition", "setting": "[6]", "result": "Dose-Dependent Effect"}, {"measurement": "inhibition", "setting": "K562 [7]", "result": "Active"}, {"measurement": "T/C", "setting": "[8]", "result": 33.51, "unit": "%"}, {"measurement": "inhibition", "setting": "K562 [9]", "result": "Dose-Dependent Effect"}, {"measurement": "pKi", "setting": "[10]", "result": 5.29}, {"measurement": "AUC(0-t) at 24 h", "setting": "[11]", "result": 12200, "unit": "ng·h/mL"}, {"measurement": "Activity", "setting": "BaF3", "result": "< 10", "unit": "%"}, {"measurement": "Tmax", "setting": "[12]", "result": 1, "unit": "h"}, {"measurement": "pEC50", "setting": "BV-173", "result": 6.21}, {"measurement": "Activity", "setting": "Mus musculus [13]", "result": "Active"}, {"measurement": "inhibition", "setting": "K562 [14]", "result": "Active"}, {"measurement": "Activity", "setting": "Mus musculus [15]", "result": "Active"}, {"measurement": "Activity", "setting": "HEK293", "result": "< 10", "unit": "%"}, {"measurement": "clearance", "setting": "[16]", "result": 4.1, "unit": "mL/min/kg"}, {"measurement": "pEC50", "setting": "K562 [17]", "result": 5.89}, {"measurement": "Activity", "setting": "K562 [18]", "result": "inactive"}, {"measurement": "pKi", "setting": "[19]", "result": 5.57}, {"measurement": "Activity", "setting": "[20]", "result": "Non-Toxic"}, {"measurement": "half-life", "setting": "[21]", "result": 5.2, "unit": "h"}, {"measurement": "pKi", "setting": "[22]", "result": 6.60}, {"measurement": "Activity", "setting": "K562 [23]", "result": "inactive"}, {"measurement": "Activity", "setting": "Mus musculus [24]", "result": "Active"}, {"measurement": "pKd", "setting": "[25]", "result": 5.51}, {"measurement": "inhibition", "setting": "K562 [26]", "result": "Active"}, {"measurement": "inhibition", "setting": "K562 [27]", "result": "inactive"}, {"measurement": "Activity", "setting": "K562 [28]", "result": "inactive"}, {"measurement": "Activity", "setting": "[29]", "result": "Active"}, {"measurement": "Activity", "setting": "K562 [30]", "result": "inactive"}]}
